Source: patent US20070009544A1, “Anti-allergic complex molecules” (priority 1999, published 2007)
≈ marks a conversion by molar mass, not a printed value. Entries after “also recorded” stand apart in the source; their conditions may differ. Read-outs that look alike come from different tables or passages of the source. Numbered stars: 1 amine (or outer) side, 2 acyl side, 3 side chain; on linkers, the order of the positions; unused ones are H or OH. Bridge positions count the residues as written; N and C are the ends. Square brackets hold non-standard residues; d marks the D form. Ends that are not written are not given here. Peptide text beside a SMILES is read from it. Phe(4-NH2) = Nc1ccc(C[C@H](N)C(=O)O)cc1; Suc = O=C(CCC(=O)[*:2])[*:1]

Experiments:
[1] = tested on: purified rat peritoneal mast cells; test: Histamine secretion from intact mast cells incubated with peptide alone (secretagogue side effect); settings: for Secretagogue (histamine secretion following incubation of mast cell with different concentrations of each peptide): no allergen; for histamine secretion from mast cells on incubation with increasing concentrations of peptide alone: no additional allergen
Protocol: (§1) Mast cells from the peritoneal cavity of C.R rats were isolated in Tyrode buffer (137 mM NaCl, 2.7 mM KC1, 1 mM MgCl2, 0.4 mM NaH2PO4, 20 mM Hepes, 1.0 mM CaCl2, 5.6 mM glucose, 1 mg/ml BSA, pH 7.2) and purified over a Ficoll gradient. A suspension of washed peritoneal cells was placed over a cushion of 30% Ficoll 400 (Pharmacia Biotech.) in buffered Saline containing 0.1% BSA; and centrifuged at 150O×g for 15 min. The purity of mast cells recovered from the bottom of the tube was >90%, as assessed by toluidine blue staining.
(§2) Purified mast cells (duplicated of 10^5 cells/0.5 ml) were incubated in Tyrode buffer with buffer or with desired concentrations of the indicated peptide for 2 h. at. 37° C. Histamine secretion was subsequently stimulated by the indicated concentration of compound 48/80 (Sigma) dissolved in Tyrode buffer. Incubation with compound 48/80 was carried out for 20 mm.in at 37° C. The reaction was terminated by placing the tubes on ice. The cells were sedimented by centrifugation at 150×g for 5 mm.in and the supernatants were collected. The amount of histamine release was determined as previously described (Aridor et al., 1990). Briefly, cell pellets were lysed using 0.1N NaOH and the volume of each sample was adjusted to 0.5 ml by H2O. Histamine content was assayed using the o-phtalaldehyde (OPT) fluorimetric method (Shore et al., 1959). Aliquots of 0.4 ml from the supernatants and cell lysates were incubated with 1.6 ml H20, 0.4 ml 1N NaOH and 0.1 ml of 10 mg/l ml OPT in methanol, for 4 min at room temperature. The reaction was terminated by the addition of 0.2 ml 3N HCl. Samples were centrifuged at 150×g for 5 min. and 0.2 ml samples were transferred to a 96 well plate. The histamine spectrofluorometric assay was run in microplates using a microplates reader (FL-600, Biotek instruments Winooski, Vt., USA). Samples were excited by light at 340 nm and read at 440 nm. Histamine release was calculated as the percentage of total histamine content (supernatant/pellet+supernatant) in each sample. Each data point represents the average of duplicate measurements. The spontaneously released histamine was subtracted.

[2] = tested on: purified rat peritoneal mast cells; format: cell-based; settings: for Inhibitor (degree of inhibition of histamine secretion from mast cells): Table 1, incubation with different concentrations of each peptide, then induction of the allergic reaction
Outline: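 Intact purified rat peritoneal mast cells were incubated at 37° C with increasing peptide concentrations, then stimulated with 5 μg/ml compound 48/80 (maximal release). Histamine secretion is expressed as % of total cellular histamine after subtracting spontaneous release, as the mean of duplicates.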

[3] = tested on: abdominal skin of C.R rats; test: Rat skin test: intradermal injection of peptide, then intradermal compound 48/80 or vehicle, wheal area; format: in vivo; settings: for Mean Wheal Area ± STD, Vehicle: vehicle instead of compound 48/80
Outline: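 Peptide was injected intradermally (20 μl, in 10% DMSO/saline) at 20 or 200 μg; after 0.5 or 1 h, 20 μl compound 48/80 (0.1 mg/ml) or vehicle was injected intradermally at the same site. Wheal outlines were traced and areas measured by planimeter, reported as mean wheal area.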

[4] = Peptide solubility (remarks; assay medium, Tyrode buffer); format: physicochemical
[5] = tested on: rat peritoneal mast cells; test: Inhibition of IgE dependent (DNP-specific IgE / DNP-BSA) histamine secretion; format: cell-based
Protocol: Peptides 2 and 2-Suc were also tested in vitro for their ability to block histamine secretion from rat peritoneal mast cells, in response to the IgE-dependent mechanism. The IgE dependent pathway is activated in response to an immunological trigger, brought about by aggregation of the high affinity receptors (FeεRI) for IgE, which are present on the cell surface of mast cells. This response involves crosslinking of cell bound IgE antibodies by the corresponding antigens (allergens).
Isolated, purified mast cells were sensitized in the presence of a monoclonal DNP-specific IgE antibody (1 μg/10^6 cells) for 1 hour at 37° C. The cells were washed 3 times and incubated for 2 hours with different concentrations of each peptide, followed by triggering with the antigen DNP-BSA (100 ng/ml) in the presence of Brain Extract (0.1 mg/ml), for 20 min. at 37° C. Placing the tubes in ice terminated the reaction. The amount of histamine released from the cells was monitored.

[6] = tested on: purified rat peritoneal mast cells
Protocol: as §1, §2

[7] = intradermal peptide 1 mg/ml, 0.5 hour before allergic induction
[8] = intradermal peptide 1 mg/ml, 0.5 hour before
[9] = intradermal peptide 1 mg/ml, 1 hour before allergic induction
[10] = intradermal peptide 1 mg/ml, 1 hour before
[11] = intradermal peptide 10 mg/ml, 0.5 hour before allergic induction
[12] = intradermal peptide 10 mg/ml, 0.5 hour before
[13] = intradermal peptide 10 mg/ml, 1 hour before allergic induction
[14] = intradermal peptide 10 mg/ml, 1 hour before
[15] = intradermal peptide 0.5 hour before allergic induction
[16] = intradermal peptide, lower dose or 1 hour before allergic induction

Mean Wheal Area ± STD, Vehicle [3, 8] | Mean Wheal Area ± STD, Vehicle [3, 10] | Mean Wheal Area ± STD, Vehicle [3, 12] | Mean Wheal Area ± STD, Vehicle [3, 14] | solubility [4] | Molecule | Inhibitor (degree of inhibition of histamine secretion from mast cells) [2] | block of compound 48/80 induced allergic reaction in vivo, rat skin ([3]; intradermal peptide) | Mean Wheal Area ± STD, Compound 48/80 [3, 7] | Mean Wheal Area ± STD, Compound 48/80 [3, 9] | Mean Wheal Area ± STD, Compound 48/80 [3, 11] | Mean Wheal Area ± STD, Compound 48/80 [3, 13] | reduction of compound 48/80 induced allergic reaction [3, 15] | reduction of compound 48/80 induced allergic reaction [3, 16] | histamine secretion from mast cells on incubation with increasing concentrations of peptide alone [1] | Secretagogue (histamine secretion following incubation of mast cell with different concentrations of each peptide) ([1]; Table 9, peptide alone) | also measured
61.4 ± 30.9 (n = 5) mm^2 | 54.6 ± 12.1 (n = 6) mm^2 | 58.8 ± 29.6 (n = 5) mm^2 | 45.0 ± 7.9 (n = 6) mm^2 | very poor solubility | CC(C)C[C@@H]1NC(=O)CNC(=O)[C@H](CS)NC(=O)[C@H](CCC(=O)O)NC(=O)[C@H](CCCCN)NC(=O)[C@H](CC(C)C)NC(=O)[C@H](CC(N)=O)NC(=O)[C@H](CC(N)=O)NC(=O)[C@@H](NC(=O)[C@@H]2CCCN2C(=O)[C@H](C)NC(=O)[C@H](CC(C)C)NC(=O)[C@H](CC(C)C)NC(=O)[C@H](C)NC(=O)[C@H](CC(C)C)NC(=O)[C@H](CC(C)C)NC(=O)[C@@H](NC(=O)[C@H](C)NC(=O)[C@@H]2CCCN2C(=O)[C@H](CC(C)C)NC(=O)[C@H](CC(C)C)NC(=O)[C@H](C)NC(=O)[C@@H](NC(=O)[C@H](C)NC(=O)[C@H](C)N)C(C)C)C(C)C)CCCCNC(=O)[C@H](Cc2ccc(O)cc2)NC1=O [Peptide 2-Cyc] (H-AAVALLPAVLLALLAPKNNLKECGLY; lactam 17-C; N-terminus assumed) | + (+ Poor inhibitor (<50% inhibition)) | less effective than peptide 2 | 104.4 ± 45.8 (n = 5) mm^2 | 84.5 ± 29.7 (n = 6) mm^2 | 82.6 ± 50.6 (n = 5) mm^2 | 75.3 ± 28.4. (n = 6) mm^2 | significant decrease in wheal area | had no effect |  |  | side effects of histamine secretion in mast cells, peptide alone ([1]; at a concentration of 100 μg/ml): only minor side effects of histamine secretion; effect on compound 48/80 induced histamine secretion ([2]; range of peptide concentrations tested): only limited potential to block compound 48/80 induced histamine secretion
 |  |  |  | severe solubility problems | CC(C)C[C@H](NC(=O)CNC(=O)[C@H](CS)NC(=O)[C@H](CCC(=O)O)NC(=O)[C@H](CCCCN)NC(=O)[C@H](CC(C)C)NC(=O)[C@H](CC(N)=O)NC(=O)[C@H](CC(N)=O)NC(=O)[C@H](CCCCN)NC(=O)[C@@H]1CCCN1C(=O)[C@H](C)NC(=O)[C@H](CC(C)C)NC(=O)[C@H](CC(C)C)NC(=O)[C@H](C)NC(=O)[C@H](CC(C)C)NC(=O)[C@H](CC(C)C)NC(=O)[C@@H](NC(=O)[C@H](C)NC(=O)[C@@H]1CCCN1C(=O)[C@H](CC(C)C)NC(=O)[C@H](CC(C)C)NC(=O)[C@H](C)NC(=O)[C@@H](NC(=O)[C@H](C)NC(=O)[C@H](C)N)C(C)C)C(C)C)C(=O)N[C@@H](Cc1ccc(N)cc1)C(=O)O [WALL005] (H-AAVALLPAVLLALLAPKNNLKECGL[Phe(4-NH2)]-OH; N-terminus and C-terminus assumed) |  |  |  |  |  |  |  |  | resulted in histamine secretion | + | 
 |  |  |  | no solubility problems | VTVLALGALAGVGVGKNNLKECGLY [Peptide 1] |  |  |  |  |  |  |  |  | resulted in histamine secretion | + | stimulatory effect on histamine secretion ([1]; peptide alone, concentration range of up to 400 p.g/ml (FIG. 1A)): hardly any stimulatory effect
 |  |  |  |  | VTVLALGALAGVGVGPKNNLKECGLY [WALL010] |  |  |  |  |  |  |  |  |  |  | Secretagogue (histamine secretion following incubation of mast cell with different concentrations of each peptide) [6]: +; histamine secretion from mast cells on incubation with increasing concentrations of peptide alone [6]: resulted in histamine secretion; maximal inhibition of compound 48/80 induced histamine release ([2]; 200 μg/ml peptide): 16.7%

Molecule | Mean Wheal Area ± STD, Vehicle [3, 8] | Mean Wheal Area ± STD, Vehicle [3, 10] | Mean Wheal Area ± STD, Vehicle [3, 12] | Mean Wheal Area ± STD, Vehicle [3, 14] | solubility [4] | Inhibitor (degree of inhibition of histamine secretion from mast cells) [2] | block of compound 48/80 induced allergic reaction in vivo, rat skin ([3]; intradermal peptide) | Mean Wheal Area ± STD, Compound 48/80 [3, 7] | Mean Wheal Area ± STD, Compound 48/80 [3, 9] | Mean Wheal Area ± STD, Compound 48/80 [3, 11] | Mean Wheal Area ± STD, Compound 48/80 [3, 13] | reduction of compound 48/80 induced allergic reaction [3, 15] | reduction of compound 48/80 induced allergic reaction [3, 16] | histamine secretion from mast cells on incubation with increasing concentrations of peptide alone [1] | Secretagogue (histamine secretion following incubation of mast cell with different concentrations of each peptide) ([1]; Table 9, peptide alone) | also measured
CC(C)C[C@H](NC(=O)CNC(=O)[C@H](CS)NC(=O)[C@H](CCC(=O)O)NC(=O)[C@H](CCCCN)NC(=O)[C@H](CC(C)C)NC(=O)[C@H](CC(N)=O)NC(=O)[C@H](CC(N)=O)NC(=O)[C@H](CCCCN)NC(=O)[C@@H]1CCCN1C(=O)[C@H](C)NC(=O)[C@H](CC(C)C)NC(=O)[C@H](CC(C)C)NC(=O)[C@H](C)NC(=O)[C@H](CC(C)C)NC(=O)[C@H](CC(C)C)NC(=O)[C@@H](NC(=O)[C@H](C)NC(=O)[C@@H]1CCCN1C(=O)[C@H](CC(C)C)NC(=O)[C@H](CC(C)C)NC(=O)[C@H](C)NC(=O)[C@@H](NC(=O)[C@H](C)NC(=O)[C@H](C)NC(=O)CCC(=O)O)C(C)C)C(C)C)C(=O)N[C@@H](Cc1ccc(O)cc1)C(=O)O [Peptide 2-Suc] (Suc-AAVALLPAVLLALLAPKNNLKECGLY-OH; C-terminus assumed) | 56.8 ± 24.1 (n = 11) mm^2 | 57.7 ± 23.2 (n = 12) mm^2 | 57.2 ± 21.7 (n = 10) mm^2 | 54.3 ± 25.8 (n = 12) mm^2 | more soluble in the assay medium, as compared to peptide 2 | +++ (+++ Potent inhibitor (>85% inhibition)) | less effective than peptide 2 | 93.4 ± 32.0 (n = 11) mm^2 | 89.3 ± 30.1 (n = 12) mm^2 | 73.8 ± 28.7 (n = 10) mm^2 | 78.1 ± 28.3 (n = 12) mm^2 | significantly reduced the wheal | had no effect | did not induce histamine secretion; also recorded: no stimulatory effect |  | Secretagogue (histamine secretion following incubation of mast cell with different concentrations of each peptide) ([1]; Table 1, peptide alone): −; inhibition of IgE induced histamine secretion ([5]; 600 μg/ml peptide, DNP-BSA 100 ng/ml): 90%; block of histamine secretion activated by an immunological trigger ([5]; DNP-specific IgE, DNP-BSA): effectively block histamine secretion; IC50, compound 48/80 induced histamine secretion [2]: 200 µg/mL (≈ 72 µM); maximal inhibition of compound 48/80 induced histamine secretion ([2]; 600 μg/ml peptide, compound 48/80 concentration not given): 80%
